Laboratory results published in the NIST ThermoML archive (doi:10.1021/je900218z).
Values joined by “and” are separate entries in the source; they are usually repeats but may differ in a detail not shown here. Equal values may be shown once. Numbers after ± are expanded uncertainties.

Assay: mn = molality of the nth substance listed, in mol/kg
Details: 298.15 K, 101 kPa, Liquid

In the case of `O=S(=O)([O-])[O-].[Na+].[Na+]` [sodium sulfate] + O, the mass density (m1 = 0.2) is reported as 1021.93 ± 0.32 kg/m3, the mass density (m1 = 0.4999) is reported as 1057.3 ± 0.4 kg/m3 and 1057.32 ± 0.4 kg/m3 and 1057.31 ± 0.4 kg/m3 and the mass density (m1 = 0.6999) is reported as 1079.92 ± 0.46 kg/m3 and 1079.94 ± 0.46 kg/m3 and 1079.93 ± 0.46 kg/m3. The mass density (m1 = 0.9868) was 1111.12 ± 0.54 kg/m3, the mass density (m1 = 0.9979) was 1112.28 ± 0.54 kg/m3 and the mass density (m1 = 0.9999) was 1112.48 ± 0.54 kg/m3. For the same compound, the mass density (m1 = 1.196) was 1133.04 ± 0.59 kg/m3 and the mass density (m1 = 1.2) was 1133.46 ± 0.59 kg/m3 and 1133.45 ± 0.59 kg/m3.
